In data set [1] the target is T1, human BChE (Homo sapiens, UniProt P06276).
T1 construct: use human BChE and AChE freshly prepared from human plasma and erythrocytes, respectively; from tissue; host or cells: human plasma
Nature of the data set: Inhibition of human plasma BChE activity (IC50). It is filed as biochemical. The conditions noted are these: human BChE freshly prepared from human plasma. From the text: (§1) Potential cholinesterase agents may be evaluated for potency in vitro by assaying its inhibitory effect on electric eel and human red blood cell ACHE and human plasma BCHE activity in cell-free extracts (See U.S. Pat. Nos. 6,495,700; 5,409,948; 5,171,750; 5,378,723; and 5,998,460). Studies also commonly utilize aged rat models to evaluate effectiveness of therapeutic drug leads in ameliorating cognitive disorders. […] (See, Greig, N. H. et al. “Butyrylcholinesterase: Its Function and Inhibition.” (ed., Giacobini, E.) Martin Dunitz, Ltd., London, 69-90, 2003, Chapter 6: Butyrylcholinesterase: its selective inhibition and relevance to Alzheimer's disease therapy at pages 80-81).
(§2) (See, Greig, N. H. et al. at page 78). These biological activity assays use human BChE and AChE freshly prepared from human plasma and erythrocytes, respectively.
(§3) These biological activity assays use human BChE and AChE freshly prepared from human plasma and erythrocytes, respectively.

Data set [2] deals with T2, human AChE (Homo sapiens, UniProt P22303).
T2 construct: use human BChE and AChE freshly prepared from human plasma and erythrocytes, respectively; from tissue; host or cells: human erythrocytes
T2 sequence (P22303 32-617 isoform P22303-2 limits assumed): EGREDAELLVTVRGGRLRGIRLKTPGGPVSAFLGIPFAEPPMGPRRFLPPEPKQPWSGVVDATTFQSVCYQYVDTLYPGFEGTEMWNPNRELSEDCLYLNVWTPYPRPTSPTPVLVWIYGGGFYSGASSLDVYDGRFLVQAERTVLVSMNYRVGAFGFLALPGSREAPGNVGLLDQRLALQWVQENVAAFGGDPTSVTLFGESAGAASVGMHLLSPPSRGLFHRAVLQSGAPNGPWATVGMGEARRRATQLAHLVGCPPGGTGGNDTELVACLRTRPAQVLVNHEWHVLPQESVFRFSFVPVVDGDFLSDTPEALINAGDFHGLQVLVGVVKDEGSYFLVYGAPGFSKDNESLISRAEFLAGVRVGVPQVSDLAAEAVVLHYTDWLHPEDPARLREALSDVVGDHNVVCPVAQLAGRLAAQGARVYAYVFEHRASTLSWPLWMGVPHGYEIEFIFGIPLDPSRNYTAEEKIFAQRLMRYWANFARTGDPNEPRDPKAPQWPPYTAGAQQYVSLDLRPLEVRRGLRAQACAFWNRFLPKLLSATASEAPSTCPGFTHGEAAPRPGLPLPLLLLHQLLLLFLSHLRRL
Put plainly: Inhibition of human erythrocyte AChE activity (IC50). In kind it is biochemical. The note with it: human AChE freshly prepared from human erythrocytes.
Text: as §1, §2, §3

The nature of data set [3]: Solubility in water / aqueous solution. It is filed as physicochemical. The note with it: for Solubility (in words): aqueous solution, free base versus tartrate acid addition salt.
For data set [4], the system named is aged (21-22 month old) Fisher-344 rats. Put plainly: Stone maze cognitive ability test after i.p. MHI tartrate (Example VII). In kind it is in vivo, rat. The note with it: 0.5 to 1.0 mg per kg intraperitoneal, daily, aged Fisher-344 rats. As to the method:
(See U.S. Pat. No. 6,683,105). MHI tartrate is administered in dosages in the range of 0.5 to 1.0 mg per kg of subject body weight. This dosage is administered daily, for example, 1-3 times per day. Effectiveness of MHI tartrate is measured by testing cognitive ability before and after administration. For instance, rats may be tested using a “Stone maze” in which a maze constructed of translucent plastic containing a grid floor wired for scrambled foot shocks surrounded by opaque gray walls to minimize effects of non-MHI tartrate related variables. Rats are given 10 seconds in which to navigate the maze. […] Similar cognitive tests, for instance timed, objective memorization tests, may be used on other subjects, such as humans.

Data set [5] has as its target T1, human BChE. The note with it: human BChE freshly prepared from human plasma; see Greig et al. page 78; cited from earlier work.
The target in data set [6] is T2, human AChE. The conditions noted are these: human AChE freshly prepared from human erythrocytes; see Greig et al. page 78; cited from earlier work.
The test system of data set [7] is aged (24-26-month-old) Fischer-344 rats. The note with it: Stone 14-unit T-maze, Greig et al. 2003; cited from earlier work.

The values below come from patent US20060105940A1, “Compound useful in the treatment or prevention of cognitive disorders associated with diabetes and associated methods” (Axonyx, Inc., priority 2004, published 2006).

What is called IC50 is the concentration at which inhibition is half-maximal.

Structures can show the parent of a compound that is named as a salt. Where two headings read alike, the source gives them in different places.

T1 sequence (P06276 29-602): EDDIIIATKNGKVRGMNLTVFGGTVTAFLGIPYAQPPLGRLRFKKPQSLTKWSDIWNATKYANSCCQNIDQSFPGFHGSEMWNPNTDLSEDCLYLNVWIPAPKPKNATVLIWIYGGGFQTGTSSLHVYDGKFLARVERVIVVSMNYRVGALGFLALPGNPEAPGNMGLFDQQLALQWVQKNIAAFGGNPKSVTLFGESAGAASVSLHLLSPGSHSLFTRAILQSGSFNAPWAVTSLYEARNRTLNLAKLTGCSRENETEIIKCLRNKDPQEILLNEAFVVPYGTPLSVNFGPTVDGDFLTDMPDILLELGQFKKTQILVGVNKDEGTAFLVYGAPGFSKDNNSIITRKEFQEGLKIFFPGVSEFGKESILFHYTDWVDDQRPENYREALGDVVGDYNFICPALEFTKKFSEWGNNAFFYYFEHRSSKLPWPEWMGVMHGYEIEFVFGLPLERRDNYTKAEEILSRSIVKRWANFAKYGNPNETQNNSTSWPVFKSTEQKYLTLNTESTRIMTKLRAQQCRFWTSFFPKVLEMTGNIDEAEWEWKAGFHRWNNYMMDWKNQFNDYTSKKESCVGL

Take `CC(C)c1ccc(NC(=O)Oc2ccc3c(c2)C2(C)CCNC2N3)cc1` [MHI tartrate, tartrate acid addition salt of the compound (−)-(3aS)-3a-methyl-1,2,3,3a,8,8a-hexahydropyrrolo-[2,3-b]indol-5-yl N-4′-isopropylphenylcarbamate]: the results for the IC50 at human BChE [1] and at human AChE [2] were 1 ± 0.1 nM and 110 ± 15 nM, respectively. The “Solubility (in words)” value in data set [3] is given as “highly soluble”. Also, the “Solubility (g per 100 ml Saturated H2O solution at room temperature)” value in data set [3] is reported as 1 g g per 100 ml. For the same compound, the “Cognitive ability (maze navigation)” value in data set [4] is given as “increase cognitive ability”.

On to `CC(C)c1ccc(NC(=O)Oc2ccc3c(c2)C2(C)CCNC2N3)cc1` (single isomer, unassigned; (-)) [MHI (Base)], for which, in data set [3] (listed as MHI), the Solubility entry was “about 0.0005 g/ml”. For the same compound, in data set [3], the “Solubility (g per 100 ml Saturated H2O solution at room temperature)” value was 0.05 g g per 100 ml. In addition, the IC50 on human BChE [5] was 1 ± 0.1 nM; on human AChE [6], 110 ± 15 nM. For the same compound, the Augmenting memory processing entry in data set [7] is reported as “potent in augmenting memory processing”.

`CC(C)c1ccc(NC(=O)Oc2ccc3c(c2)[C@]2(C)CCN(CCc4ccccc4)[C@@H]2N3C)cc1` [phenethylcymserine, reference compound]: the “Solubility (in words)” value in data set [3] is listed as “insoluble”.
